Reference: the NIST ThermoML archive (doi:10.1016/j.tca.2004.12.008)
Numbers after ± are expanded uncertainties.

Assay: mn = molality of the nth substance listed, in mol/kg
Conditions: 101.3 kPa, Liquid, Vibrating tube method

NCC(=O)NCC(=O)O [glycylglycine] + O
mass density [kg/m3]
Conditions	m1 = 0.0949	m1 = 0.2052	m1 = 0.2997	m1 = 0.4062	m1 = 0.5069
298.15 K	1002.54 ± 0.07	1008.5 ± 0.07	1013.49 ± 0.08	1018.99 ± 0.09	1024.06 ± 0.1
308.15 K	999.21 ± 0.07	1005.1 ± 0.07	1010.03 ± 0.08	1015.47 ± 0.09	1020.5 ± 0.1
